# Measurements from patent US20060058243A1, “Methods and compositions for treating diabetes mellitis” (priority 2002, published 2006).
# “Also recorded” adds a separate entry of the source.
# Assays:
# 3T3-L1 adipocytes [1] = assay: Glucose transport stimulatory (GTS) activity, 2-deoxy-D-[3H]glucose uptake; assay type: cell-based; conditions: for GTS activity (in words): 3T3-L1 cell system; for glucose uptake by the cells: 20-40 μM
# Method: (§1) PGG, either as a mixture or as single isomer (α or β), is added to either adipocytes (A) or preadipocytes (B). GTS activity (A) and AD activity (B) of PGG are measured by ^3H-glucose uptake. GLUT4 is not expressed in preadipocytes, so glucose uptake can be used as an indirect measurement of adipocyte differentiation.
# Glucose uptake activity in cells may be analyzed by measuring the uptake of 2-deoxy-D-[^3H] glucose using a standard assay. Confluent 3T3-L1 adipocytes grown in 12-well plates are washed twice with serum-free DMEM and incubated with 1 mL of the same medium at 37° C. for 2 h. The cells are washed 3 times with Krebs-Ringer-Hepes (KRP) buffer and incubated with 0.9 mL KRP buffer at 37° C. for 30 min. […] Glucose uptake is initiated by addition of 0.1 mL KRP buffer and 37 MBq/L 2-deoxy-D-[^3H] glucose and 1 mmol/L glucose as final concentrations. After 10 min, glucose uptake is terminated by washing the cells 3 times with cold PBS. The cells are lysed with 0.7 mL of 1% Triton X-100 at 37° C. for 20 min. The radioactivity retained by the cell lysates is determined by a scintillation counter. The dosage that induces the maximal glucose uptake can be selected among the experimental samples.
# 3T3-L1 adipocytes were purchased from ATCC, and maintained and passed as preadipocytes in DMEM supplemented with 10% calf serum in a 37° C. incubator with 10% CO2 as required by the cells. The cells were induced to differentiate into adipocytes by addition of MDI induction cocktail as described in Liu, F., Kim, J., Li, Y., Liu, X., Li, J. & Chen, X. (2001) An extract of Lagerstroemia speciosa L. has insulin-like glucose uptake-stimulatory and adipocyte differentiation-inhibitory activities in 3T3-L1 cells. J. Nutrition 131:2242-224, which is specifically incorporated herein by reference. Varying amounts of α-PGG and β-PGG were then added to the medium and the amount of glucose taken up by control and treated cells determined using a standard glucose uptake assay, as described in Liu et al. As shown in FIG. 2A chemically synthesized and plant derived β-PGG have similar glucose transport stimulatory (GTS). The GTS activity of α-PGG is consistently 10-20% higher than that of β-PGG (FIG. 2).
# Confluent 3T3-L1 adipocytes grown in 12-well plates were washed twice with serum-free DMEM and incubated with 1 mL of the same medium at 37° C. for 2 h. The cells were washed 3 times with Krebs-Ringer-Hepes (KRP) buffer and incubated with 0.9 mL KRP buffer at 37° C. for 30 min. Compounds listed in the table below were then added at 20-40 μM (final concentration?) and adipocytes were incubated at 37° C. for 15 min. Glucose uptake was initiated by addition of 0.1 mL KRP buffer and 37 MBq/L 2-deoxy-D-[3H] glucose and 1 mmol/L glucose as final concentrations. After 10 min, glucose uptake was terminated by washing the cells 3 times with cold PBS. The cells were lysed with 0.7 mL of 1% Triton X-100 at 37° C. for 20 min. The radioactivity retained by the cell lysates is determined by a scintillation counter.
# [2] = molecular target: T1, insulin receptor IR in 3T3-L1 adipocytes (Mus musculus, UniProt P15208); assay: 125I-insulin binding in the presence of PGG; conditions: FIG. 4
# T1 construct: host or cells: 3T3-L1 adipocytes
# gelatin, BSA, ovalbumin = assay: Competitive protein binding assay with 125I BSA tracer; conditions: FIG. 5
# Method: A fixed quantity of ^125I BSA was incubated with PGG in the presence of variable amount of either cold gelatin, or BSA, or ovalbumin. Bound was separated from free by precipitation and was expressed as the % bound in the absence of competitor.
# A competitive binding assay using radiolabeled bovine serum albumin (BSA) as the tracer was used to determine whether PGG can bind proteins selectively. The relative affinities of three standard proteins for PGG differ from one another by at least 10-fold (FIG. 5), and the difference of the binding affinities of PGG to gelatin and ovalbumin is more than 100-fold.
# Akt in 3T3-L1 adipocytes = assay: Western blot of Akt phosphorylation; assay type: cell-based; conditions: PGG 15 μM and 30 μM, FIG. 7
# Excerpt: Differentially treated adipocytes were lysed, the cell proteins analyzed by SDS-PAGE.
# 3T3-L1 preadipocytes [3] = assay: Adipocyte differentiation (AD) of preadipocytes, MDI induction, Oil Red O staining and glucose uptake; assay type: cell-based
# Method: as §1
# Ten days after induction, the cells were stained with Oil Red 0 and photographed at magnification X200. Only those cells that contain fat vesicles (triglyceride) can be stained.
# After about 10 days MDI induces differentiation, which is clearly visible as the change from fibroblast-like preadipcytes to round-shaped, fat vesicle-containing adipocytes.
# 3T3-L1 adipocytes were purchased from ATCC, and maintained and passed as preadipocytes in DMEM supplemented with 10% calf serum in a 37° C. incubator with 10% CO2 as required by the cells. To test the effect of PGG on adipogenesis, the preadipocytes were incubated either with a differentiation-induction cocktail comprised of 3-isobutyl-1-methylxanthine, […], a cocktail comprised of 3-isobutyl-1-methylxanthine, dexamethasone (MD) and PGG; or with MDI plus PGG.
# In order to study the mechanism by which PGG inhibits 3T3-L1 preadipocyte differentiation, we used gene expression studies. This strategy allows us to determine whether PGG specifically acts on genes that participate in the differentiation process. […] After about 10 days MDI induces differentiation, which is clearly visible as the change from fibroblast-like preadipcytes to round-shaped, fat vesicle-containing adipocytes (FIG. 8 middle).
# [4] = system: PPARγ and C/EBPα gene expression in 3T3-L1 preadipocytes; assay: Northern blot analysis of differentiation gene expression; assay type: cell-based; conditions: FIG. 9
# Method: FIG. 9. Northern blot analysis of PPARγ and C/EBPα gene expression in 3T3-L1 preadipocytes. Differentially treated preadipocytes were analyzed for their mRNA expression at various times post treatment. Lane 1: No treatment; Lane 2=MDI; Lane 3=30 μM PGG+MDI; Lane 4=30 μM of PGG alone. Times=times post treatment when mRNA was isolated.
# At various times the treated cells were harvested, the total RNA was isolated, and expression was analyzed by Northern blots using probes complementary to various genes that are involved in the differentiation process.
# ob/ob mice = assay: Glucose tolerance test in ob/ob mice; assay type: in vivo; conditions: ob/ob mice
# Method: FIG. 11. Effect of PGG on blood glucose levels in db/db and ob/ob mice. Various doses of α-PGG were orally delivered without glucose to db/db mice(A) or with glucose to ob/ob mice (B) mice. At different times post the delivery, glucose was determined in samples from tail blood.
# FIG. 12. PGG protects ob/ob mice from hyperglycemia immediately after glucose challenge and hypoglycemia several days after the challenge. At various time points after the glucose challenge, blood glucose levels were measured in tail blood.
# To determine if α-PGG is also effective in improving glucose tolerance in diabetic and obese mice, a glucose tolerance test was performed using ob/ob mice. Glucose or glucose plus α-PGG were orally delivered into male ob/ob mice, and blood glucose levels were measured at various times post glucose/PGG administration.
# A single high does of glucose in ob/ob mice can be fatal, either because of the very high levels of blood glucose levels […] after the glucose challenge or because of the abnormally low glucose levels 2-3 days after the glucose challenge. […] Although the protection mechanisms are unknown at this time, it is very likely that α-PGG protected the ob/ob mice not only by its GTS activity, but also some other activity such as AD-related activity.
# Normal (healthy) mice = assay: Blood glucose in normal mice at basal glucose level (hypoglycemia test); conditions: given 120 min after 40 mg oral glucose; PGG oral, insulin intraperitoneal
# Method: Normal (healthy) mice were orally fed with 40 mg of glucose at time zero. […] Thus, PGG reduces blood glucose level when it is higher than normal.
# 3T3-L1 adipocytes [5] = assay: Glucose transport induced by insulin or PGG in the presence of insulin-signaling pathway inhibitors; assay type: cell-based; conditions: FIG. 6
# Method: The glucose transport activity of the treated cells was measured by ^3H glucose taken up by the cells. HNMPA-(AM)3 inhibits IR Tyr kinase activity, Cytochalasin B inhibits GLUT4, Wortmannin inhibits PI-3K, respectively.
# 3T3-L1 preadipocytes [6] = assay: Clonal expansion / cell proliferation assay by LDH activity; assay type: cell-based; conditions: in the presence of MDI, FIG. 10
# Method: Preadipocytes were induced to undergo clonal expansion by MDI, or α-PGG, or β-PGG in the presence of MDI. 24 or 48 hrs after induction, the media was removed and the cells were lysed. The […] (LDH) activity of the cell lysates was measured by LDH kit. Cell growth media were also collected and their LDH activity from dead cells was also measured (not shown on this graph). LDH activity is a constant per cell in a given cell type, the LDH activity measured is proportional to the number of cells in the samples.
# A cell proliferation assay was used to determine if PGG inhibits adipocyte differentiation by blocking clonal expansion. […] The basis for the difference between the anomers in clonal expansion and differentiation is not known.
# T1 sequence (P15208 28-748 limits assumed): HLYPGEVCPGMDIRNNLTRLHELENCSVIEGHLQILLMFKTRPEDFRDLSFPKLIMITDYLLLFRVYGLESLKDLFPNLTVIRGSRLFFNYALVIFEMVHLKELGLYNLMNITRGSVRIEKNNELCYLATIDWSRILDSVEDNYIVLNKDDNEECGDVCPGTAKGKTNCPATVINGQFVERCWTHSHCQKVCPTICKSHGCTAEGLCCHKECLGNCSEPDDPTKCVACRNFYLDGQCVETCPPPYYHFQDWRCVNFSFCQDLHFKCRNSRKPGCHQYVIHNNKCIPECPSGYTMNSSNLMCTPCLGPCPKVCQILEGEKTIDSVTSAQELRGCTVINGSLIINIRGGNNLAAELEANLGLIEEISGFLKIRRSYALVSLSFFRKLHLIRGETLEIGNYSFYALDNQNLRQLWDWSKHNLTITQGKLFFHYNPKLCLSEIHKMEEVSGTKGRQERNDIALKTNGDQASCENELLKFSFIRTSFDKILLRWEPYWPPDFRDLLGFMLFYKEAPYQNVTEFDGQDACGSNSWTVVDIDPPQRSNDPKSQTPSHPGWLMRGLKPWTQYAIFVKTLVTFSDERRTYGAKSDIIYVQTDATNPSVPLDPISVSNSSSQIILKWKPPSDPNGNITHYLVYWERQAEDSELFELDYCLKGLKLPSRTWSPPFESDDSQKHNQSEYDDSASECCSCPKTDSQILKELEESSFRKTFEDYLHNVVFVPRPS
# T1 sequence (P15208 753-1372 limits assumed): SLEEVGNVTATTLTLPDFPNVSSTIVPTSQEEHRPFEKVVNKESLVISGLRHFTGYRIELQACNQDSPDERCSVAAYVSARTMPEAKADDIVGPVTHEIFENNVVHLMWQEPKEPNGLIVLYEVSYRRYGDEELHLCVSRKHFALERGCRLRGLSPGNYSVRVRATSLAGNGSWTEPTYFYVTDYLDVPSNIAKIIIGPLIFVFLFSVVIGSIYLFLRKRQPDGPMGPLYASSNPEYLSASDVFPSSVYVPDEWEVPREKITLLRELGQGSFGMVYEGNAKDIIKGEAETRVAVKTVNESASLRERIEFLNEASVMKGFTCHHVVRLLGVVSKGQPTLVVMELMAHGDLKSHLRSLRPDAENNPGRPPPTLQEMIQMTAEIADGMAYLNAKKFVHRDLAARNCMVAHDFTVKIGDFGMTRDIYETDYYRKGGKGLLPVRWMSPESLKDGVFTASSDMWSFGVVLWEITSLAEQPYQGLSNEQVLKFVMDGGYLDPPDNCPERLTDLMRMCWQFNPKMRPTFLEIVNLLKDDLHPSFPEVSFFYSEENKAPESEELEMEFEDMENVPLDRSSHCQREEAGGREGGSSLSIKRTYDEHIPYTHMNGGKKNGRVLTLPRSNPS
molecule,measurement,setting,value
"O=C(O[C@@H]1Cc2c(O)cc(O)cc2O[C@@H]1c1cc(O)c(O)c(O)c1)c1cc(O)c(O)c(O)c1 [EGCG, reference compound]",GTS activity (in words),3T3-L1 adipocytes [1],no activity
"O=C[C@H](OC(=O)c1cc(O)c(O)c(O)c1)[C@@H](OC(=O)c1cc(O)c(O)c(O)c1)[C@H](OC(=O)c1cc(O)c(O)c(O)c1)[C@@H](COC(=O)c1cc(O)c(O)c(O)c1)OC(=O)c1cc(O)c(O)c(O)c1 [PGG, penta-O-galloyl-D-glucose]",GTS activity (in words),3T3-L1 adipocytes [1],high activities
same,competition with / displacement of insulin at the insulin binding site on IR,"[2]; 8 pM 125I-insulin, 0.1 to 20 μM PGG, overnight 4° C.",does not compete with insulin; also recorded: unable to displace insulin from IR
same,insulin binding at higher PGG concentrations,[2]; PGG above 20 μM,Insulin binding increased
same,difference of binding affinities of PGG to gelatin and ovalbumin,"gelatin, BSA, ovalbumin",more than 100 fold
same,difference between relative affinities of three standard proteins for PGG,"gelatin, BSA, ovalbumin; gelatin, BSA, ovalbumin",at least 10 fold
same,phosphorylation of Akt,Akt in 3T3-L1 adipocytes,phosphorylated
same,induction of differentiation when insulin in MDI was substituted by PGG,"3T3-L1 preadipocytes [3]; MD plus PGG, FIG. 2B",failed to induce differentiation
same,differentiation of preadipocytes treated with MDI plus compound,"3T3-L1 preadipocytes [3]; about 10 days, 30 μM PGG, FIG. 8",retain their fibroblast-like morphology and remain fat vesicle-free
same,"expression of genes PPAR-γ, c/EBP induced by MDI",[4]; 30 μM PGG+MDI,completely abolished
same,β-actin expression,[4],not significantly affected
same,toxic effects,ob/ob mice,No PGG-related toxic effects were observed
same,hypoglycemia / blood glucose below basal levels,Normal (healthy) mice,does not further reduce bood glucose levels beyond normal or basal levels
"O=C(OC[C@H]1OC(OC(=O)c2cc(O)c(O)c(O)c2)[C@H](OC(=O)c2cc(O)c(O)c(O)c2)[C@@H](OC(=O)c2cc(O)c(O)c(O)c2)[C@H]1OC(=O)c1cc(O)c(O)c(O)c1)c1cc(O)c(O)c(O)c1 (stereo partly shown) [PGGal, Pentagalloyl galactose]",GTS activity relative to PGG,3T3-L1 adipocytes [1]; 3T3-L1 cells,60-70%
C=C1[C@@H](C)[C@H]2[C@H](Cc3ccccc3)NC(=O)[C@]23OC(=O)/C=C/[C@H](O)CCC[C@@H](C)C/C=C/[C@H]3[C@@H]1O [cytochalasin B],inhibition of the GTS activity mediated by either insulin or PGG,3T3-L1 adipocytes [5],completely inhibited
"O=C(O[C@H]1OC[C@@H](OC(=O)c2cc(O)c(O)c(O)c2)[C@H](OC(=O)c2cc(O)c(O)c(O)c2)[C@H]1OC(=O)c1cc(O)c(O)c(O)c1)c1cc(O)c(O)c(O)c1 [α-XylG4, Tetrakis-O-(3,4,5-trihydroxybenzoyl) -α-D-xylopyranose]",glucose uptake by the cells,3T3-L1 adipocytes [1]; 3T3-L1 adipocytes,increased glucose uptake
"O=C(OC[C@H]1O[C@@H](OC(=O)c2ccc(O)c(O)c2)[C@H](OC(=O)c2ccc(O)c(O)c2)[C@@H](OC(=O)c2ccc(O)c(O)c2)[C@@H]1OC(=O)c1ccc(O)c(O)c1)c1ccc(O)c(O)c1 [β-Glc(G-3,4-OH2)5, Pentakis-O-(3,4-dihydroxybenzoyl) -β-D-glucopyranose]",glucose uptake by the cells,3T3-L1 adipocytes [1]; 3T3-L1 adipocytes,increased glucose uptake
"O=C(OC[C@H]1O[C@@H](OC(=O)c2cc(O)c(O)c(O)c2)[C@H](OC(=O)c2cc(O)c(O)c(O)c2)[C@@H](OC(=O)c2cc(O)c(O)c(O)c2)[C@@H]1OC(=O)c1cc(O)c(O)c(O)c1)c1cc(O)c(O)c(O)c1 [β-PGG, 1,2,3,4,6-penta-O-galloyl-β-D-glucose]","GTS activity, synthesized versus plant derived β-PGG","3T3-L1 adipocytes [1]; 3T3-L1 adipocytes, FIG. 2A",similar
same,first round of clonal expansion,3T3-L1 preadipocytes [6],not inhibited
same,second round of clonal expansion,3T3-L1 preadipocytes [6],completely inhibited
"insulin: hormone, positive control [reference compound]",hypoglycemia / blood glucose below basal levels,Normal (healthy) mice,resulted in a hypoglycemic condition
pentagalloyl deoxynojirimycin [PG-DJM],GTS activity (in words),3T3-L1 adipocytes [1],no detectable GTS activity
